Converted amounts (≈) assume the structure as drawn.
Columns and labels:
[1] = Capacity of drug loading of the electrospun polymer device; assay type: physicochemical; conditions: larger quantities cause supersaturation of the solution
Source text: With time, the solvent would evaporate leaving a crystallized non-homogenous mixture of polymer and drug.

[2] = in vivo; cited from earlier work
[3] = cited from earlier work
[4] = intravenous infusion, doses 30 to 170 mg/m^2; cited from earlier work

Compound: COc1ccccc1OCC(O)CO (racemic) [Guaifenesin, (2RS)-3-(2-Methoxyphenoxy)propane-1,2-diol]
- maximum amount of drug loaded in the electrospun polymer device [1]: 5 wt %
- half-life [2]: approximately 1 hour
- water solubility [3]: 50 mg/mL (≈ 252 mM)

Compound: O=NN(CCCl)C(=O)NCCCl [BCNU]
- average terminal half-life [4]: 22 min
- clearance [4]: 56 mL/min/kg
- steady-state volume of distribution [4]: 3.25 L/kg

Compound: C[C@]12CC[C@@H]3c4ccc(O)cc4CC[C@H]3[C@@H]1CC[C@@H]2O [Beta-Estradiol, 17β-estradiol]
- maximum amount of drug loaded in the electrospun polymer device [1]: 1 wt %
